Measured values: the Biogen ADME set (Fang et al. 2023)
Values after ≈ are worked out from the molar mass of the structure shown.

Conditions: for aqueous solubility: pH 6.8

SMILES | MDR1-MDCK efflux ratio | intrinsic clearance, human liver microsomes | intrinsic clearance, rat liver microsomes | aqueous solubility | fraction unbound, human plasma | fraction unbound, rat plasma
Cc1cc(-c2cnn(CCNC(=O)c3sc(C)nc3C)c2C2CC2)on1 | 5.26 | 23.8 mL/min/kg | 123 mL/min/kg | 67.1 µg/mL (≈ 181 µM) |  | 
COc1cc2c(c(OC)c1OC)CCNC(=O)C2 |  | ≤ 4.74 mL/min/kg | ≤ 10.7 mL/min/kg | 49.6 µg/mL (≈ 198 µM) |  | 
CN(CC1(O)CCCC1)c1ncccn1 | 1.27 | ≤ 4.74 mL/min/kg | 132 mL/min/kg | 32.6 µg/mL (≈ 157 µM) |  | 
Cc1cc(OCc2ncc(C(C)(C)C)o2)nn1C | 0.716 | 27.8 mL/min/kg | 655 mL/min/kg | 18.5 µg/mL (≈ 74.2 µM) |  | 
Cc1nnc(NCCc2ccc3c(c2)OCO3)c(C#N)c1C | 0.636 | 52.1 mL/min/kg | 935 mL/min/kg | 22.4 µg/mL (≈ 75.6 µM) |  | 
COc1cc(Nc2c(C#N)cnc3cc(OC)c(OC)cc23)c(Cl)cc1Cl |  | 161 mL/min/kg | 443 mL/min/kg |  |  | 
c1ccc(-c2cn(C3CNC3)nn2)cc1 |  | ≤ 4.74 mL/min/kg | 28.6 mL/min/kg |  |  | 
CCCCCNC(=N)N/N=C/c1c[nH]c2ccc(OC)cc12 | 72 | 10.3 mL/min/kg | 182 mL/min/kg | 30.1 µg/mL (≈ 100 µM) |  | 
Cc1nonc1C(=O)NCCc1c[nH]c2cccc(C3(O)CCOCC3)c12 |  |  |  | 61.2 µg/mL (≈ 165 µM) |  | 
N#Cc1ccccc1N1CCC(N)CC1 | 0.562 | 22.1 mL/min/kg | 2210 mL/min/kg | 54.7 µg/mL (≈ 272 µM) |  | 
COc1ccc(CCn2c(C3CC3)n[nH]c2=O)cc1 | 1 | 5.56 mL/min/kg | 366 mL/min/kg | 28.4 µg/mL (≈ 109 µM) |  | 
CC(=O)NC1(C(=O)N2CCCN(C3CC3)CC2)CCC(C)CC1 (stereo unspecified) | 37.7 | 27.7 mL/min/kg | 80.8 mL/min/kg | 53.8 µg/mL (≈ 167 µM) |  | 
Cc1cc(-c2nc(N(C)C)no2)cc(O)n1 | 0.726 | ≤ 4.74 mL/min/kg | 31.7 mL/min/kg |  |  | 
O=C(NC[C@]1(O)CCN(Cc2cscn2)C[C@H]1O)c1c[nH]cn1 |  | ≤ 4.74 mL/min/kg | 42.6 mL/min/kg |  |  | 
c1cnc(N2CCC(Cc3ccncc3)CC2)nc1 | 0.575 | 10.9 mL/min/kg | 146 mL/min/kg | 58.1 µg/mL (≈ 228 µM) |  | 
CC(=O)Nc1ncc(C(=O)O)s1 |  |  |  |  | 0.66 | 0.715
CC(C)(C)C[C@@H]1COCc2nc(OCc3ccccn3)cc(=O)n21 |  |  |  | 62.1 µg/mL (≈ 189 µM) |  | 
CN(C)c1ncn(-c2cccc(N)c2)n1 | 0.596 | 15.3 mL/min/kg | 25.4 mL/min/kg | 22.1 µg/mL (≈ 109 µM) |  | 
CCONC(=O)c1cncn1-c1ccc(F)cc1 | 2.24 | ≤ 4.74 mL/min/kg | ≤ 10.7 mL/min/kg | 48 µg/mL (≈ 193 µM) |  | 
CCNC(=O)N1CCC2(CCc3ccccc3O2)CC1 | 0.737 | 6.22 mL/min/kg | 884 mL/min/kg | 66.7 µg/mL (≈ 243 µM) |  | 
Cc1ccc(-c2nnc(SCCn3cccn3)[nH]2)cc1 |  | 96.9 mL/min/kg | 302 mL/min/kg | 21.8 µg/mL (≈ 76.4 µM) |  | 
CC(=O)NC1CCC(NCCc2c(C)cccc2C)CC1 (stereo unspecified) | 19.8 | ≤ 4.74 mL/min/kg | 1140 mL/min/kg |  |  | 
CCCc1cc(CNC(=O)N2C[C@H]3C[C@@H](C2)c2cccc(=O)n2C3)on1 | 16.4 | 16.6 mL/min/kg | 90.4 mL/min/kg |  |  | 
CCOC1CCN(C(=O)Cn2c(=O)[nH]c3ccccc32)CC1 | 16.9 | ≤ 4.74 mL/min/kg | 20.2 mL/min/kg | 47.3 µg/mL (≈ 156 µM) |  | 
O=C(Nc1cnn(-c2ncccn2)c1)C1CCCCC1 |  | ≤ 4.74 mL/min/kg | 73.1 mL/min/kg |  |  | 
N#Cc1ccccc1CN1C(=O)CCC1=O |  | ≤ 4.74 mL/min/kg | 20.4 mL/min/kg |  |  | 

Continued, values first:

MDR1-MDCK efflux ratio | intrinsic clearance, human liver microsomes | intrinsic clearance, rat liver microsomes | aqueous solubility | fraction unbound, human plasma | fraction unbound, rat plasma | SMILES
 | 6.88 mL/min/kg | 764 mL/min/kg | 38.1 µg/mL (≈ 147 µM) |  |  | Cc1cccnc1NC(=O)CCc1ccc(F)cc1
0.662 | 18.3 mL/min/kg | 442 mL/min/kg |  |  |  | C/C(=C/COc1c2occc2cc2ccc(=O)oc12)CO
 |  |  | 52.4 µg/mL (≈ 157 µM) |  |  | Cc1nc2ccc(C(=O)NCCCN3Cc4ccccc4C3)cc2[nH]1
 |  |  | 7 µg/mL (≈ 27.5 µM) |  |  | Cc1cc(NC(=O)c2ccc(Cl)cc2F)no1
52.5 | 5.04 mL/min/kg | 353 mL/min/kg | 60.9 µg/mL (≈ 161 µM) |  |  | COCCNC(=O)CN1CCN(c2nccn2-c2cccc(Cl)c2)CC1
1.19 | 108 mL/min/kg | 1900 mL/min/kg | 45.6 µg/mL (≈ 130 µM) |  |  | O[C@@H]1C[C@@H](c2nc(-c3cccnc3)no2)N(CCCc2ccccc2)C1
0.615 | 20 mL/min/kg | 115 mL/min/kg | 32.6 µg/mL (≈ 120 µM) |  |  | Cc1ccc(C(=O)C(=O)Nc2c(C)nn(C)c2C)cc1
0.09 | 99 mL/min/kg | 149 mL/min/kg |  |  |  | O=C(Nc1cncc(Cl)c1Cl)c1cccc(-n2cccn2)n1
42.6 | 12.4 mL/min/kg | 56.3 mL/min/kg |  |  |  | CN(C)CC(=O)N1CCC(c2ccc(NC(=O)c3nc(C#N)c[nH]3)c(C3=CCCCC3)c2)CC1
 | 52.5 mL/min/kg | 508 mL/min/kg | 47.1 µg/mL (≈ 184 µM) |  |  | Cc1ccc(OCC(=O)Nc2ccncc2)c(C)c1
10.7 | 20 mL/min/kg | 2940 mL/min/kg | 4.89 µg/mL (≈ 12.7 µM) |  |  | O=S(=O)(Nc1cccc(-c2nc3ccccc3[nH]2)c1)c1ccc(Cl)cc1
 |  |  | 0.4 µg/mL (≈ 0.948 µM) |  |  | O=C(CNC(=O)c1ccc(Cl)cc1)Nc1nc(-c2ccc3ccccc3c2)cs1
 | 60.5 mL/min/kg | 178 mL/min/kg |  |  |  | c1cnc(NCc2cccc3cnccc23)nc1
0.476 | 22 mL/min/kg | 165 mL/min/kg | 29.3 µg/mL (≈ 117 µM) |  |  | Clc1cccc(CNc2nc(C3CC3)no2)c1
1.61 | 1050 mL/min/kg | 2420 mL/min/kg |  | 0.00885 |  | Cc1ccc(Oc2ccc(Cl)cc2NC(=O)CN(C)CC(=O)N(C)C)cc1
 | 44.3 mL/min/kg | 244 mL/min/kg |  |  |  | c1cnc2c(Oc3ncnc4sccc34)cccc2c1
76.2 | 11.6 mL/min/kg | 37.3 mL/min/kg | 29.9 µg/mL (≈ 59.7 µM) | 0.00442 | 0.00827 | Nc1n[nH]cc1-c1cc(Cl)ccc1Oc1cc(F)c(S(=O)(=O)Nc2cscn2)cc1Cl

MDR1-MDCK efflux ratio | intrinsic clearance, human liver microsomes | intrinsic clearance, rat liver microsomes | aqueous solubility | fraction unbound, human plasma | fraction unbound, rat plasma | SMILES
0.995 | 61.5 mL/min/kg | 878 mL/min/kg | 3.82 µg/mL (≈ 11 µM) |  |  | CNc1ncc(-c2nc(C3(c4ccccc4)CC3)nn2C(C)(C)C)cn1
53.8 | 10.9 mL/min/kg | 45.5 mL/min/kg | 94.5 µg/mL (≈ 191 µM) |  |  | COc1ccc(C(=O)C2CCN(CC(=O)N(Cc3nc4c(c(=O)[nH]3)COCC4)CC3CC3)CC2)cc1
21.7 | 44.9 mL/min/kg | 360 mL/min/kg | 86.4 µg/mL (≈ 218 µM) |  |  | CCOC(=O)Nc1ccc2c(c1)N(C(=O)CN(CC)CC)c1ccccc1CC2
0.705 | ≤ 4.74 mL/min/kg | 12.2 mL/min/kg | 44.8 µg/mL (≈ 188 µM) |  |  | CCC(=O)N(C)CC(=O)Nc1cccc(F)c1
0.83 | ≤ 4.74 mL/min/kg | 726 mL/min/kg | 46.7 µg/mL (≈ 172 µM) |  |  | CCN(Cc1ccccc1)C(=O)c1ccc(O)cc1O
0.343 | 187 mL/min/kg | 238 mL/min/kg |  |  |  | N#Cc1ccc(CNc2cnc3ccccc3c2)o1
 | ≤ 4.74 mL/min/kg | 149 mL/min/kg | 47.5 µg/mL (≈ 174 µM) |  |  | O=C(NCCc1ccc(O)c(O)c1)Nc1ccccn1
0.432 |  |  | 0.1 µg/mL (≈ 0.214 µM) | 0.326 | 0.568 | COc1ccc([C@H]2c3[nH]c4ccc(Cl)cc4c3CCN2C(=O)Oc2ccc(Cl)cc2)cc1
0.66 | ≤ 4.74 mL/min/kg | ≤ 10.7 mL/min/kg | 54 µg/mL (≈ 221 µM) |  |  | Nc1ccc(CC(=O)Nc2ccccc2F)cc1
 |  |  | 69.8 µg/mL (≈ 206 µM) |  |  | O=C(c1ccco1)N1CCCC(C(=O)N2CCc3ccccc3C2)C1 (stereo unspecified)
20.2 | 258 mL/min/kg | 248 mL/min/kg |  |  |  | CCN1CCN(S(=O)(=O)c2c[nH]c(C(C)C)n2)c2ccccc21
9.52 | 218 mL/min/kg | 2960 mL/min/kg | 69.7 µg/mL (≈ 164 µM) |  |  | COc1ccccc1CNC(=O)c1cnc(C2CCN(C(=O)C(C)(C)C)CC2)nc1C
16.9 | 16 mL/min/kg | 308 mL/min/kg |  |  |  | Cn1cnnc1-c1cccc(NS(=O)(=O)c2cc3c(cc2Cl)OCCO3)c1
0.45 | 417 mL/min/kg | 1770 mL/min/kg | 24.9 µg/mL (≈ 78.5 µM) |  |  | Cc1ccc2c(c1)cc(CNCCc1ccccc1)c1nnnn12
2.81 | ≤ 4.74 mL/min/kg | 27.3 mL/min/kg | 40.8 µg/mL (≈ 144 µM) |  | 0.412 | O=C(Nc1cccnc1)c1ccnc(NC(=O)C2CC2)c1
0.572 | 89.3 mL/min/kg | 605 mL/min/kg | 40.1 µg/mL (≈ 140 µM) |  |  | COc1ccc(Nc2ncnc3sccc23)c(OC)c1
